Test system: Pseudaletia separata Walker
Assay: Effects on Pseudaletia separata Walker (corn leaf immersion, third instar larvae)
Assay type: in vivo
Conditions: wettable powder diluted to 125 ppm, corn leaves immersed 30 seconds, 25° C., 65% RH, assessed 6 days after treatment
Description: Effects on Pseudaletia separata Walker
According to the instructions of the wettable powder described in the above Example 2, a wettable powder was diluted with water to make the compound concentration 125 ppm. Corn leaves were immersed in the solution for 30 seconds, air-dried and placed in a Petri dish containing 5 third instar larvae of Pseudaletia separata Walker. The dish was covered with a glass lid and placed in a thermostatic chamber of temperature of 25° C. and relative humidity of 65%. Mortality was assessed 6 days after treatment. Each test was replicated twice.

## Cc1cc(Cl)ccc1N=CN(C)C [Chlordimeform]
  mortality: 40%

From patent US6492404B1, “Thiazolylcinnamonitriles and pest controlling agents” (Nippon Soda Co., Ltd., priority 1998, dated 2002)
